Assay in all cases: biochemical
What all share (type): biochemical

The target of assay [1] is T1, 382 unique human kinases (Homo sapiens, UniProt Q92918).
T1 construct: purchased Reaction Biology (HotSpot contract assay)
Conditions: kinase HPK1/MAP4K1, compound 10 uM; for remaining activity at 10 µM: read-out: % Enzyme Activity (relative to DMSO controls).

In assay [2] the target is T2, 382 unique human kinases (Homo sapiens, UniProt Q9UEW8).
T2 construct: purchased Reaction Biology (HotSpot contract assay)
Conditions: STK39/STLK3, 10 uM; for remaining activity at 10 µM: read-out: % Enzyme Activity (relative to DMSO controls).

Assay [3] addresses T3, 382 unique human kinases (Homo sapiens, UniProt Q9HBY8).
T3 construct: purchased Reaction Biology (HotSpot contract assay)
T3 sequence (Q9HBY8 1-367): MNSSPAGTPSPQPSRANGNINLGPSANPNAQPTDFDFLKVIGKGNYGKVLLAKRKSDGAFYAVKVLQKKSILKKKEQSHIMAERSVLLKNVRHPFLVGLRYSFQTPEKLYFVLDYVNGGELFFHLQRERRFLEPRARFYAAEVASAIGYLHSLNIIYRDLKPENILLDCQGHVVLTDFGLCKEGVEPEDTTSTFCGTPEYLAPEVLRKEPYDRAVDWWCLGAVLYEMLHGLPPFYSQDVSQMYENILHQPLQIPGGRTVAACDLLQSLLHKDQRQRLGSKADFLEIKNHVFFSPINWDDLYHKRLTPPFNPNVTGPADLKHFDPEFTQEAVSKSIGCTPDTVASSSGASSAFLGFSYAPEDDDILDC
To be noted: kinase SGK2, compound 10 uM; for remaining activity at 10 µM: read-out: % Enzyme Activity (relative to DMSO controls).

The target in assay [4] is T4, 382 unique human kinases (Homo sapiens, UniProt P00533, G719C).
T4 construct: purchased Reaction Biology (HotSpot contract assay)
To be noted: kinase EGFR (G719C), compound 10 uM; for remaining activity at 10 µM: read-out: % Enzyme Activity (relative to DMSO controls).

Assay [5] has as its target T5, 382 unique human kinases (Homo sapiens, UniProt Q13470).
T5 construct: purchased Reaction Biology (HotSpot contract assay)
T5 sequence (Q13470 1-666): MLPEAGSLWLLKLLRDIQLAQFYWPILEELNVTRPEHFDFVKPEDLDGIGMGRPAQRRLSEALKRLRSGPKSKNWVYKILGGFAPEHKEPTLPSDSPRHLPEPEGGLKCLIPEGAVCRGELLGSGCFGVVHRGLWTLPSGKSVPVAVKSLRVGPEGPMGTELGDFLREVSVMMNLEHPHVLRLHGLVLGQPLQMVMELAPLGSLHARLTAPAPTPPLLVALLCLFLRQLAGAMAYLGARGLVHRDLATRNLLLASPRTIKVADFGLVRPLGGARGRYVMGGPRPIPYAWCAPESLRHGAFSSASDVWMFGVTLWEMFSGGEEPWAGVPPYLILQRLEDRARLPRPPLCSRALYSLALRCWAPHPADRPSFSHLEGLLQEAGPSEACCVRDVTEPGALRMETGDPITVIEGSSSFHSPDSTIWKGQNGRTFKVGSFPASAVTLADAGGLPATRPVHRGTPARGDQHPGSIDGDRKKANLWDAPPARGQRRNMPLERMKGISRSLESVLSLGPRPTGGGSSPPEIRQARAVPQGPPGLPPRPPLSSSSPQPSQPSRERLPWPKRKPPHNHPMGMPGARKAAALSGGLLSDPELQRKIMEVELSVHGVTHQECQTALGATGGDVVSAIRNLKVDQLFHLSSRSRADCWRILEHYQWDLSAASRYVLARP
To be noted: TNK1, 10 uM; for remaining activity at 10 µM: read-out: % Enzyme Activity (relative to DMSO controls).

Assay [6] addresses T6, 382 unique human kinases (Homo sapiens, UniProt P15056, V600E).
T6 construct: purchased Reaction Biology (HotSpot contract assay)
Conditions: BRAF (V599E), 10 uM; for remaining activity at 10 µM: read-out: % Enzyme Activity (relative to DMSO controls).

The target in assay [7] is T7, 382 unique human kinases (Homo sapiens, UniProt Q96RG2).
T7 construct: purchased Reaction Biology (HotSpot contract assay)
T7 sequence (Q96RG2 whole entry): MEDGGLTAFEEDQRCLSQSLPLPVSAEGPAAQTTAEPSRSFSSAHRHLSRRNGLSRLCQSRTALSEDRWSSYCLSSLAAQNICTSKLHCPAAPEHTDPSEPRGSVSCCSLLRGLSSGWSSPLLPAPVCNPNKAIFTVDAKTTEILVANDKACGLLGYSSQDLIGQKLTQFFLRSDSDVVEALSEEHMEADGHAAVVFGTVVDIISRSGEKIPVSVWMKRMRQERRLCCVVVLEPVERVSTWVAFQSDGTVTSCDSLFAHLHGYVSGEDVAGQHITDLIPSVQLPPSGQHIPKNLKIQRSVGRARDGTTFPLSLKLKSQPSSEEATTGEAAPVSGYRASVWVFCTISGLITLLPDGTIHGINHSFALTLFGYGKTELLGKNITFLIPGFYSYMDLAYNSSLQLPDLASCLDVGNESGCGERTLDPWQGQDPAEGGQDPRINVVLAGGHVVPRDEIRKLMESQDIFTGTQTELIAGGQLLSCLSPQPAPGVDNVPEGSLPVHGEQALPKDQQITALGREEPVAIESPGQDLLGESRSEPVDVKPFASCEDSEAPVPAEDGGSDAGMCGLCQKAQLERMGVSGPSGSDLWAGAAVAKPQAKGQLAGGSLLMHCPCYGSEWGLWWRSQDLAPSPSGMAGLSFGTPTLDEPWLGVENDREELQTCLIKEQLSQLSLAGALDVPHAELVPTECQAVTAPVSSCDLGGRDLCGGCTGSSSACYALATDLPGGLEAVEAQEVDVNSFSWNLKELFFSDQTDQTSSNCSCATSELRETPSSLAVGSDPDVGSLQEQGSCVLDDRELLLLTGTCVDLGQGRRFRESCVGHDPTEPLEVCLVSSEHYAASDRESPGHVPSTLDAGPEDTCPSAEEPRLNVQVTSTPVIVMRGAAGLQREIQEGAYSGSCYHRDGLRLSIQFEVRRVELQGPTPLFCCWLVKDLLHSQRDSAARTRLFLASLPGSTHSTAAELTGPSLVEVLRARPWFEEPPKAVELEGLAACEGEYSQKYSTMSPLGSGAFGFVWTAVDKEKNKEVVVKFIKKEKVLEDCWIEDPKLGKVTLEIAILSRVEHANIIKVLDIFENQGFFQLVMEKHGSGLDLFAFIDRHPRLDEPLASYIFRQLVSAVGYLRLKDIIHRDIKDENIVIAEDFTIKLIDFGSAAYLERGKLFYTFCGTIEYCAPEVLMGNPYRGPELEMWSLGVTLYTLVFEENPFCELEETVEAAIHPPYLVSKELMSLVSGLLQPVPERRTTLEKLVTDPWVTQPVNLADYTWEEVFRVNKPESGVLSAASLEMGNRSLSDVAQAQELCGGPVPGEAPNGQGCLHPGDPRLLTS
Conditions: PASK, [ATP] 50 µM.

The target of assay [8] is T8, 382 unique human kinases (Homo sapiens, UniProt P31751, E17K).
T8 construct: purchased Reaction Biology (HotSpot contract assay)
T8 sequence (P31751 whole entry E17K): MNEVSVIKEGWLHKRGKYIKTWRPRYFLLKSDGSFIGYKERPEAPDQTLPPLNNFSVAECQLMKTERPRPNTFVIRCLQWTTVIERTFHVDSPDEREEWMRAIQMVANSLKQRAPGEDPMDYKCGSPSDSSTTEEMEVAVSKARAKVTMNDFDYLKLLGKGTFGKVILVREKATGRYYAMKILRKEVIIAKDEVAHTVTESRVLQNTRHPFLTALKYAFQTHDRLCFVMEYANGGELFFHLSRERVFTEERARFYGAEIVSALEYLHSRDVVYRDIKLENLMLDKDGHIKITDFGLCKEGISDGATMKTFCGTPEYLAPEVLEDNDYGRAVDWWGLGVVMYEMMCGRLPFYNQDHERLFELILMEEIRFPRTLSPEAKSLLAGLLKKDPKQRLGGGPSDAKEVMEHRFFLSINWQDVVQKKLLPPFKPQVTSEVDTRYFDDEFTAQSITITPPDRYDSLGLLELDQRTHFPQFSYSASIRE
To be noted: AKT2 (E17K), 10 uM; for remaining activity at 10 µM: read-out: % Enzyme Activity (relative to DMSO controls).

Assay [9] concerns the target T9, 382 unique human kinases (Homo sapiens, UniProt P42685).
T9 construct: purchased Reaction Biology (HotSpot contract assay)
Conditions: FRK/PTK5, [ATP] 30 µM, compound 10 uM; for remaining activity at 10 µM: read-out: % Enzyme Activity (relative to DMSO controls).

The target of assay [10] is T10, 382 unique human kinases (Homo sapiens, UniProt P51813).
T10 construct: purchased Reaction Biology (HotSpot contract assay)
T10 sequence (P51813 1-675): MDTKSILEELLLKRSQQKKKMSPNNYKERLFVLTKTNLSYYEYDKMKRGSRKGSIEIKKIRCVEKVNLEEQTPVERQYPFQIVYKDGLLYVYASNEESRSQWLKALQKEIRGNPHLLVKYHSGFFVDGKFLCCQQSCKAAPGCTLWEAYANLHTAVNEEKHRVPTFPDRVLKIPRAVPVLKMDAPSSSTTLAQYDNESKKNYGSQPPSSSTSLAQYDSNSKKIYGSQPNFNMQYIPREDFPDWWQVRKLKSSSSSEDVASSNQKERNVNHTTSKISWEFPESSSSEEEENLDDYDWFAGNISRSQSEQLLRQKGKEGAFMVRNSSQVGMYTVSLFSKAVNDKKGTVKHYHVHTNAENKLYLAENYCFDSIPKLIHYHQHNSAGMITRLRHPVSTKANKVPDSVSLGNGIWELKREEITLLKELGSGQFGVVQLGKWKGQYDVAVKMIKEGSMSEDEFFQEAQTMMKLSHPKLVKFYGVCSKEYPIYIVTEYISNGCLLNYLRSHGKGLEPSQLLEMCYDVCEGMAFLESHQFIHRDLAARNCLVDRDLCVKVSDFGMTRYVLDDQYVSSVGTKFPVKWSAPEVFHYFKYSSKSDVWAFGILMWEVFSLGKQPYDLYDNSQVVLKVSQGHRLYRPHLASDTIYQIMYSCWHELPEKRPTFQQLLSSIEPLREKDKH
To be noted: BMX/ETK, [ATP] 50 µM, compound 10 uM; for remaining activity at 10 µM: read-out: % Enzyme Activity (relative to DMSO controls).

[11] abbreviates: compound 10 uM, read-out: % Enzyme Activity (relative to DMSO controls).

T9 sequence (P42685 whole entry): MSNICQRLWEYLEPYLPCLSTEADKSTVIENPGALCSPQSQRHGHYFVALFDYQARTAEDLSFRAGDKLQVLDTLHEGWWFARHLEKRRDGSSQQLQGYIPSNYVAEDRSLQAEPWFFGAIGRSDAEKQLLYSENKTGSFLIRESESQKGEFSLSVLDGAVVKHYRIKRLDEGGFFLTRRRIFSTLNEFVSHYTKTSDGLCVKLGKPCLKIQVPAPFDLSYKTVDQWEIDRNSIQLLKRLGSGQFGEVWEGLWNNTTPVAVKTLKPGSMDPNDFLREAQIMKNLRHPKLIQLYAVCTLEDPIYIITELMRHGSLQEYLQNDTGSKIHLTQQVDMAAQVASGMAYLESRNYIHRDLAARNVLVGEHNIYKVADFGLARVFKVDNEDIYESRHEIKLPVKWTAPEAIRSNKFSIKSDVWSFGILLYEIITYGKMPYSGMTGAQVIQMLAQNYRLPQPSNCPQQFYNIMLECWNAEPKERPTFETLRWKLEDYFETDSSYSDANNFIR
T1 sequence (Q92918 whole entry): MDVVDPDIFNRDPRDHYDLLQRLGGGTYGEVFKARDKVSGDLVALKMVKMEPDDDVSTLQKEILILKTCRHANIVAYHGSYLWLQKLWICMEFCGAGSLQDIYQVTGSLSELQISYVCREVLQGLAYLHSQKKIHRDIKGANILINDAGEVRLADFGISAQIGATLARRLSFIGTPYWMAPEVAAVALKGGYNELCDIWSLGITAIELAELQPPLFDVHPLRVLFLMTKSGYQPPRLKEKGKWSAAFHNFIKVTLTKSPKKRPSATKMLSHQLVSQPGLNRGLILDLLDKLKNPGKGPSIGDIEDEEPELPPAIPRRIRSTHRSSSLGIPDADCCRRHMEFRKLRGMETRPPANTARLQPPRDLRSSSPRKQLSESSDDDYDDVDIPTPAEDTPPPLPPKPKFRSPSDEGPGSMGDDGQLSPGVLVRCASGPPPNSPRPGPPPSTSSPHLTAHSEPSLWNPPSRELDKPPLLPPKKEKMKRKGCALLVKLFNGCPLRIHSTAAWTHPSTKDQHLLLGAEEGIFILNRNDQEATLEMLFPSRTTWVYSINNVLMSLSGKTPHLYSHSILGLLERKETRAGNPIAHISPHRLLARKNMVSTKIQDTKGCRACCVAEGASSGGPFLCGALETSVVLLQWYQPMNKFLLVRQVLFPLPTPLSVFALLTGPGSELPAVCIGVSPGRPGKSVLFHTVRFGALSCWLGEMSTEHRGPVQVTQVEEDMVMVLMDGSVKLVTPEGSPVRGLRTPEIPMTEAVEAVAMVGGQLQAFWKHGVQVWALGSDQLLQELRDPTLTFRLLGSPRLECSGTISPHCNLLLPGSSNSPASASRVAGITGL
T6 sequence (P15056 whole entry V600E): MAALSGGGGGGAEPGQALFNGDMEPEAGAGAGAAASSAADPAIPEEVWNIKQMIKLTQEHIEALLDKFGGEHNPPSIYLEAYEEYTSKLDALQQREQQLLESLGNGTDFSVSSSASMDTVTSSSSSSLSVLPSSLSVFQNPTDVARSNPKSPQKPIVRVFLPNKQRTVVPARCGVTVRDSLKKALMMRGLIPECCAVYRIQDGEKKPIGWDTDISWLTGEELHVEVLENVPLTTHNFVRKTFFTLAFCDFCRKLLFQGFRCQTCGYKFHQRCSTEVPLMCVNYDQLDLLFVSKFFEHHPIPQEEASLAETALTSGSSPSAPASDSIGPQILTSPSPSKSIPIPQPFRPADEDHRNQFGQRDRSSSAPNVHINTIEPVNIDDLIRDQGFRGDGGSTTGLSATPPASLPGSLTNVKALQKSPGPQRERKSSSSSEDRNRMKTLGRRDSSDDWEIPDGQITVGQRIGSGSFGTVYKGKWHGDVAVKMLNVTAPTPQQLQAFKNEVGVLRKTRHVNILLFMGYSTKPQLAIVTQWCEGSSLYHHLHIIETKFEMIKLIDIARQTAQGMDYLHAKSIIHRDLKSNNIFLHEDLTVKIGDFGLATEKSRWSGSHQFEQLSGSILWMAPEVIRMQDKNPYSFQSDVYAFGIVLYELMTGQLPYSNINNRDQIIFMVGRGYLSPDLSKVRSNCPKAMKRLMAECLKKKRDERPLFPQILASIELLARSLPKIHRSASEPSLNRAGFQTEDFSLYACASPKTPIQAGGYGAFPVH

On to `CC(C)c1cc(-c2n[nH]c(=O)n2-c2ccc3c(ccn3C)c2)c(O)cc1O` [Ganetespib (STA9090)], for which the remaining activity at 10 µM stood at 97.5% in assay [1]; 70.5% in assay [2]; 85.5% in assay [3]; 84.6% in assay [4]; 65.8% in assay [5].

For `CC(C)c1cc(-c2n[nH]c(=O)n2-c2ccc3c(ccn3C)c2)c(O)cc1O` [Ganetespib], the remaining activity at 10 µM came out at 110% in [6]; 12.1% in assay [7] (setting [11]); 108% in assay [8]; 18.1% in [9]; 46.7% in assay [10]. Further, in assay [7] (compound 1 uM, read-out: % Enzyme Activity (relative to DMSO controls)), the remaining activity at 1 µM stood at 49.7%.

For `CCNC(=O)c1noc(-c2cc(C(C)C)c(O)cc2O)c1-c1ccc(CN2CCOCC2)cc1` [Luminespib (AUY-922)], the “% Enzyme Activity (relative to DMSO controls)” value in [1] is 120.08%; in assay [2], 90.56%; in [3], 108.05%; in assay [4] it was 99.10%; in assay [5], 96.12%. Further, the remaining activity at 10 µM is 121% in assay [1]; 93.8% in assay [2]; 110% in assay [3]; 100% in [4]; 97.5% in [5].

`CCNC(=O)c1noc(-c2cc(C(C)C)c(O)cc2O)c1-c1ccc(CN2CCOCC2)cc1` [Luminespib]: the “% Enzyme Activity (relative to DMSO controls)” value in assay [6] is listed as 98.13%; in assay [7] (compound 10 uM), 98.65%; in assay [8] it was 96.63%; in assay [9], 63.67%; in [10] it was 102.71%. The remaining activity at 10 µM in assay [6] is 98.8%; in [7] (setting [11]), 99%; in assay [8] it was 98%; in assay [9], 64.5%; in assay [10], 103%.

The values above are taken from publication PMC8550792, “Evolution of kinase polypharmacology across HSP90 drug discovery” (Cell Chemical Biology, 2021).
